Here are results for one substance from US7695751B2 (priority 2004, dated 2010).

“And” between values parts separate entries of the source, which are not always exact repeats. Identical values can stand only once.

The experiment has as its system Salmonella Typhimurium strain TA98. The class given is cell-based.

For Aflatoxin B1 [AFB1 control], the MR was 13.75 and 12.35; the “Number of mutant colonies/plate” value is recorded as 383 ± 65 colonies/plate; the “The number of mutant colonies/plate” value is reported as 385 ± 97 colonies/plate.
